Series [1] relates to APP/PS1 mice. Briefly: Immunostaining of Aß and microglial marker Iba1 in brain sections. The class given is in vivo. As to conditions: 3.15 mg/kg daily for seven days vs PBS.
For series [2], the system named is APP/PS1 mice. The experiment in a line: Short-term treatment of APP/PS1 mice, TBS soluble Aß in brain (ELISA, immunoblotting). The class given is in vivo. As to conditions: after 1 week of peripherally administered cromolyn sodium (intraperitoneally daily), 7.5 months old APP/PS1 mice. On the technique in general: In an ELISA, binding on a coated surface is turned into a signal by an enzyme label.
Protocol: One week after daily injection, tris-buffered saline (TBS) soluble Aßx-40 (left graph) and Aßx-42 (right graph) were measured under the condition with (black bar) or without (white bar) pre-incubation with guanidine (Gdn)-HCl using Aß ELISA. The value under the incubation with Gdn-HCl show the concentration of total TBS soluble Aß, and the value under the no incubation with Gdn-HCl show the concentration of monomeric Aß. FIG. 5B: oligomeric Aß in TBS soluble brain extracts were measured using 82E1/82E1 Aß oligomer specific ELISA. FIG. 5C illustrates representative immunoblotting of TBS soluble brain extracts with anti-Aß antibody (6E10 and 82E1) (left panel). The densitometry of monomeric Aß was quantified (right graph). (n=3-5/group; *, P<0.05, **, P<0.01).

The test system of series [3] is microglial cells. Briefly: Microglia culture incubated with synthetic Aß40 or Aß42, Aß ELISA of media. The note with it: 0.10 nM, 10 μM or 1 mM Cromolyn Sodium, 16 hours. The class given is cell-based. The procedure:
After the incubation, the concentrations of […]-42 (right panel) in media were measured using Aß ELISA and normalized with microglia cell number and according to the PBS control condition. (n=3 experiments; *, P<0.05, **, P<0.01)

For series [4] the following is noted: for maximum plasma concentration / time of maximum plasma concentration: mean ± spread.
Series [5] relates to hemorrhage formation after tPa treatment. The note with it: adult rats; intracerebral injection; cited from earlier work.
Series [6] has as its system unilateral hypoxia-ischemia in neonatal rats. The note with it: given at the end of the hypoxic period, assessed at 48 hours; cited from earlier work.
Series [7] relates to transient middle cerebral artery occlusion. As to conditions: adult rats; intracerebral injection; cited from earlier work.
For series [8], the system named is experimental cerebral ischemia/reperfusion. The note with it: cited from earlier work.
A short description of series [9]: clinical. The note with it: human, in vivo, inhaled or intranasal, AUC (plasma).
For series [10] the following is noted: cited from earlier work.
Series [11] relates to Aß amyloid peptide. The note with it: at nanomolar concentrations; laboratory testing (Hori 2015; Elmaleh 2014); cited from earlier work.
For series [12], the system named is Aß amyloid peptide. The experiment in a line: In vitro assays of Aß amyloid peptide polymerization into oligomers and aggregates. The class given is biochemical. The note with it: at nanomolar concentrations. The procedure:
One of the most routinely used approaches to monitor Aβ polymerization is the thioflavin T binding assay (Elmaleh, 2014; Hori, 2015). […] AO peptide at 5 μM was mixed with 10 μM thioflavin T with drug at different concentrations.
Fibrillization of synthetic Aß40 (left column) or Aß42 (right column) peptides was followed over 1 hour.

[13] abbreviates: 34.2 mg double inhaled dose, range.

SMILES strings stand for the structures. “Also recorded” adds a separate entry of the source. Read-outs that look alike come from different tables or passages of the source.

For the compound `O=C(O)c1cc(=O)c2c(OCC(O)COc3cccc4oc(C(=O)O)cc(=O)c34)cccc2o1` [cromolyn sodium], the “percentage of Iba1 immunoreactivity overlapping with amyloid” value in series [1] is reported as “higher percentage”; in series [1] (listed as Cromolyn Sodium) it was “increased overlap”. For the same compound, in [2], the “decrease of total soluble Aβ levels” value is “over 50%”. For the same compound, the “Aß40 levels in media of microglia culture” value in series [3] (50 nM synthetic Aß40) was “dose-dependent decrease”. In series [3] (50 nM synthetic Aß42), the “Aß42 levels in media of microglia culture” value is listed as “dose-dependent decrease”.
In general, AUC refers to concentration integrated over time. On to `O=C([O-])c1cc(=O)c2c(OCC(O)COc3cccc4oc(C(=O)[O-])cc(=O)c34)cccc2o1.[Na+].[Na+]` [Cromolyn], for which the maximum plasma concentration was 47.1 ± 33.6 ng/mL in series [4] (17.1 mg single inhaled dose, healthy volunteers) and 95.0 ± 45.5 ng/mL in [4] (34.2 mg double inhaled dose). Further, the “time of maximum plasma concentration” value in series [4] (17.1 mg single inhaled dose) was found to be 23.3 ± 16.9 min; in series [4] (34.2 mg double inhaled dose), 22.2 ± 19.4 min. Besides, the “time of maximum plasma concentration, range” value in series [4] (17.1 mg single inhaled dose, range) was in the range of 5 to 60 min; in series [4] (setting [13]) it was 5 to 60 min. The “maximum plasma concentration, range” value in series [4] (17.1 mg single inhaled dose, range over subjects) was in the range of 14.0 to 133 ng/mL; in series [4] (setting [13]), 36.1 to 236 ng/mL. Moreover, the “hemorrhage formation after tPa treatment” value in [5] is given as “inhibited”. Further, in [6], the glial activation result is recorded as “limited”. Moreover, in series [6], the mast cell migration/degranulation result is on record as “limited”. For the same compound, the neuronal loss result in series [6] is “limited”. Moreover, the neutrophil accumulation entry in series [7] is on record as “reduced”. Besides, in series [8], the “survival of experimental animals” value was “improved survival”. The AUC in [9] (17.1 mg, 17.1 mg single dose inhalation, mean ± spread) is 0.147 ± 0.0671 µg·h/mL; in series [9] (17.1 mg, range, 17.1 mg single dose inhalation) it was 0.0447 to 0.287 µg·h/mL; in [9] (34.2 mg, 34.2 mg double dose inhalation, mean ± spread), 0.254 ± 0.0938 µg·h/mL; in [9] (34.2 mg, range, 34.2 mg double dose inhalation), 0.122 to 0.443 µg·h/mL. The “variability of plasma levels following inhalation” value in series [10] is “high intraand inter-subject variability”. Moreover, the “cromolyn uptake by asthmatics” value in [10] (inhalation, compared with healthy volunteers) is “lower than by healthy volunteers”. The “binding to and inhibition of amyloid β (Aβ) peptide oligomerization” value in series [11] is “bind to and inhibit”. Moreover, the “inhibition of Aß aggregation / polymerization into oligomers and higher order aggregates” value in series [12] is listed as “inhibition; also recorded: effectively inhibits”.
